Experimental data: US20220288065A1, “MONOCYCLIC AGONISTS OF STIMULATOR OF INTERFERON GENES STING” (The Scripps Research Institute, priority 2019, published 2022)
pEC50: −log10 of the molar value.

Tested on: THP-1 Lucia ISG cells
Assay: ISG-LUC activation assay (ISRE-luciferase assay)
Assay type: cell-based
Conditions: Homo sapiens, THP1-Lucia ISG, activity score based upon potency and efficacy data, 24 hours
Excerpt: We have established a robust platform for identifying non-nucleotide small molecule STING agonists. This has been established using a primary assay involving a human THP-1 cell line carrying an IRF-inducible reporter with 5 copies of the IFN signaling response element. Counter screens, involving alternative reporter constructs, rodent cell-based assays, as well as cGAS and STING knock-out cell lines, are used to eliminate luciferase artifacts and ensure human-rodent cross species reactivity, as well as pathway selectivity. Biochemical assays, involving cGAS enzymatic activity and STING protein binding assays, are used to identify the specific target of identified hits.
Tissue culture. Wild-type (cat. no. thpl-isg) and STING KO (cat. no. thpd-kostg) THP-1-Lucia ISG cells were purchased from Invivogen and maintained in growth media consisting of RPMI 1640, 2 mM L-glutamine, 25 mM HEPES, 10% heat-inactivated fetal bovine serum (FBS), 1,000 units/ml penicillin, 1,000 μg/ml streptomycin, 0.25 μg/ml Amphotericin B, and 100 μg/ml zeocin unless otherwise stated.
ISRE-luciferase assay. THP-1 Lucia ISG cells were resuspended in low-serum growth media (2% FBS) at a density of 5×10^5 cells/ml and treated with test article or vehicle (DMSO). 50 μL of cells were seeded into each well of a 384-well white greiner plates and incubated for 24 hours. To evaluate expression of the luciferase reporter, 30 μl of Quanti-luc (Invivogen) detection reagent was added to each well and luminescence was read using an Envision plate reader (Perkin Elmer) set with an integration time of 0.1 seconds.

SMILES	pEC50
C#Cc1cc(NC(=O)c2cnc(-c3cn[nH]c3)cn2)c(C(=O)OC)cc1F [Compound 55]	< 4.70
COC(=O)c1cc(F)c(F)cc1NC(=O)c1ccc(CC#N)nn1 [Compound 9]	< 6.00
COC(=O)c1cc(Cl)c(Cl)cc1NC(=O)c1cn(-c2cnn(C(=O)OC(C)(C)C)c2)nn1 [Compound 22]	< 6.00
COC(=O)c1cc(F)c(F)cc1NC(=O)c1nnc(-n2ccnc2)cc1CN [Compound 2, methyl 2-(4-(aminomethyl)-6-(1H-imidazol-1-yl)pyridazine-3-carboxamido)-4,5-difluorobenzoate]	< 6.00
C#Cc1cc(NC(=O)c2ccc(-c3cn[nH]c3)nn2)c(-c2nn[nH]n2)cc1F [Compound 84]	< 6.00
O=C(Nc1cc(F)c(F)cc1C(=O)O)c1ccc(-c2cn[nH]c2)nn1 [Compound 63]	< 6.00
C#Cc1cc(NC(=O)c2ccc(-n3ccnc3)nn2)c(C(=O)NCCO)nc1Cl [Compound 105]	< 6.00
COC(=O)c1cc(Cl)c(Cl)cc1NC(=O)c1cc(CCCN)c(-n2ccnc2)nn1 [Compound 74]	< 6.00
COC(=O)c1cc(F)c(F)cc1NC(=O)c1nnc(-n2ccnc2)cc1C [Compound 43]	< 6.00
N#Cc1cc(C(=O)O)c(NC(=O)c2ccc(-n3ccnc3)nn2)cc1Cl [Compound 99]	> 5.52
C#Cc1cc(NC(=O)c2ccc(-n3ccnc3)nn2)c(C(=O)O)cc1C#N [Compound 100]	> 5.52
COC(=O)NCCNc1cc(C(=O)Nc2cc(F)c(F)cc2C(=O)OCc2ccc(OC)cc2)nnc1-n1ccnc1 [Compound 61]	< 6.00
Nc1n[nH]cc1-c1ccc(C(=O)Nc2cc(F)c(F)cc2C(=O)O)nn1 [Compound 14]	< 6.00
COC(=O)c1cc(F)c(F)cc1NC(=O)c1ccc(C#N)nn1 [Compound 5]	< 6.00
O=C(Nc1cc(Cl)c(F)cc1C(=O)O)c1ccc(-c2ccns2)nn1 [Compound 31]	> 6.05

More lines, now with the values ahead:

pEC50	SMILES
> 6.05	C#Cc1cc(NC(=O)c2ccc(-c3ccncc3)nn2)c(C(=O)O)cc1F [Compound 1, lithium 4-ethynyl-5-fluoro-2-(6-(pyridin-4-yl)pyridazine-3-carboxamido) benzoate]
> 6.05	O=C(Nc1cc(Cl)c(Cl)nc1C(=O)O)c1ccc(-n2ccnc2)nn1 [Compound 82]
> 6.05	COC(=O)c1cc(F)c(F)cc1NC(=O)c1nnc(-n2ccnc2)cc1CO [Compound 7]
> 6.05	C#Cc1cc(NC(=O)c2ccc(-n3ccnc3)nn2)c(C(=O)OC(C)OC(=O)OCC)cc1F (centres unmarked) [Compound 86]
> 6.05	C#Cc1cc(NC(=O)c2ccc(-c3cn[nH]c3)nn2)c(C(=O)O)nc1Cl [Compound 38]
> 6.05	C/C=C/c1cc(NC(=O)c2ccc(-n3ccnc3)nn2)c(C(=O)O)nc1Cl [Compound 101]
> 6.05	C#Cc1cc(NC(=O)c2ccc(-c3ccncc3)nn2)c(C(=O)O)cc1Cl [Compound 78]
> 6.05	C#Cc1cc(NC(=O)c2ccc(-c3cn[nH]c3)nn2)c(-c2c(O)c(=O)c2=O)cc1F [Compound 83]
> 6.05	C#Cc1cc2nc(-c3ccc(-n4ccnc4)nn3)oc(=O)c2cc1F [Compound 75]
> 6.05	C#Cc1cc(NC(=O)c2ccc(-n3ccnc3)nn2)c(C(=O)O)nc1Cl [Compound 77]
> 6.05	C#Cc1cc(NC(=O)c2ccc(-n3ccnc3)nn2)c(C(=O)O)nc1F [Compound 92]
> 6.05	C#Cc1cc(NC(=O)c2ccc(-n3ccnc3)nn2)c(C(=O)OCCN2CCOCC2)cc1F [Compound 103]
> 6.05	COC(=O)c1cc(F)c(F)cc1NC(=O)c1cc(N)c(-n2ccnc2)nn1 [Compound 41]
> 6.05	CC#Cc1cc(NC(=O)c2ccc(-n3ccnc3)nn2)c(C(=O)O)cc1F [Compound 87]
